Assays:
AT3189-P AT lymphoblasts = test: ROS levels by DHE and flow cytometry in AT lymphoblasts; assay type: cell-based, human; conditions: AT3189-P cells, three weeks after infection, DHE, versus AT736C control cells
Experimental: FIG. 3. Determination of ROS levels in AT cells: AT3189-P AT cells were infected with a lentiviral vector expressing GSE24.2 or a GFP empty vector and three weeks later were loaded with the DHE reagent that detects Reactive Oxygen Species (ROS) levels. AT736C cells were used as a control. Relative fluorescence of the three cell lines and the proportion of cells with maximum intensity were determined through flow cytometry using wavelengths of 518 nm absorption and 605 nm emission. The data are shown as relative percentage of cells that emit at this wavelength.
One of the characteristics of AT cells is an increase in free radical content. This is due to the failure of function of protein ATM, which is able to maintain the redox balance in normal cells when the cells are exposed to environmental stress such as in vitro culture. In order to verify if expression of GSE24.2 has some impact on the regulation of free radical levels, we used the compound dihydroethidium (Hydroethidine), which enables quantifying the levels of free radicals in living cells. […] Three weeks after infection, the cells were loaded with the DHE reagent for 30 minutes and the proportion of cells with different free radical content was determined by flow cytometry.

AT719 cells = test: Viability (MTS) in response to bleomycin in AT cells; assay type: cell-based, human; conditions: increasing concentrations of bleomycin, 72 hours, versus AT736C control
Experimental: FIG. 5. Determination of the viability in response to bleomycin in AT cells: AT719-P AT cells were infected with a lentiviral vector expressing GSE24.2 or a GFP empty vector and three weeks later they were treated with different doses of bleomycin. AT736C cells were used as a control. The cells were fixed after 72 hours of treatment and viability determined with the MTS reagent. The values represent the result of the test performed in triplicate and express the viability with respect to untreated cells.
Mutations in gene ATM sensitise cells of AT patients to treatment with ionizing radiation or radiomimetic drugs such as bleomycin. In order to verify if the protective effect induced by GSE24.2 in cells of AT patients also extends to radiomimetic agents, AT719 patient cells expressing pCMV-GFP-GSE24.2 or an empty vector expressing only GFP (GFP) were treated with increasing concentrations of bleomycin for 72 hours. After this time, cell viability was evaluated using MTS reagent. AT736C cells were used as a control.

AT719-P cells = test: Oxidative stress (ROS by DHE, flow cytometry) in AT719-P cells expressing GSE24.2 or GSE4; assay type: cell-based, human; conditions: three weeks after infection
Experimental: FIG. 11. Determination of oxidative stress levels in ataxia telangiectasia cells after expressing the peptides GSE24.2 and GSE4. AT719-P cells were infected with a lentiviral vector expressing GSE24.2, GSE4 or a GFP empty vector and three weeks later loaded with the DHE reagent that detects levels of reactive oxygen species (ROS). AT736C cells were used as a control. The relative fluorescence of the four cell lines and the proportion of cells with maximum intensity were determined by flow cytometry at wavelengths of 518 nm absorption and 605 nm emission. The data are shown as relative percentage of cells that emit at this wavelength.
(§1) As the peptide denominated GSE4 was smaller than the peptides with ability to repair telomerase activity, we studied if it had the same activity as peptide GSE24.2 for attenuating oxidative stress, expression of proinflammatory cytokines and repairing the senescence in ataxia telangiectasia cells. […] Finally, given that the increase in expression of the interleukins IL6 and IL8 are associated with a secretory phenotype linked to senescence in ataxia telangiectasia, we evaluated the ability of both peptides GSE24.2 and GSE4 to reduce senescence by evaluating senescence-associated β-galactosidase activity (SA-beta-Gal) (FIG. 13).

IL8 = test: Expression of proinflammatory cytokine IL8 in AT719-P cells; assay type: cell-based, human; conditions: relative to β-actin
Experimental: FIG. 12. Levels of expression of proinflammatory cytokines in ataxia telangiectasia cells after expressing peptides GSE24.2 and GSE4. AT719-P AT cells were infected with a lentiviral vector expressing GSE24.2, GSE4 or a GFP empty vector and three weeks later the RNA was extracted and after obtaining the corresponding cDNA, the levels of expression of the proinflammatory cytokines IL6 and IL8 were determined. AT736C cells were used as a control. The levels of expression of the gene β-actin were measured as control of expression. The results are expressed as the relative increase in the number of times of expression of each of the genes compared to β-actin, considering the levels of expression of AT736C cells as 1.
as §1

AT2078 AT cells = test: Senescence-associated β-galactosidase activity in AT cells; assay type: cell-based, human; conditions: 3 days or eight days after infection
From the text: FIG. 13. Determination of senescence of AT cells after expressing peptides GSE24.2 and GSE4: AT2078 AT cells were infected with a lentiviral vector expressing GSE24.2, GSE4 or a GFP empty vector and 3 days or eight days later they were fixed to determine the expression of the enzyme β-galactosidase acid associated with senescence (senescence-associated β-galactosidase). Control C-1787 cells were used as the negative control. The percentage of cells expressing β-galactosidase from the total cells per field was determined. 200 cells per cell type were evaluated and the results grouped into cells showing no activity (βgal-, in division) and senescent cells (β-gal+).
as §1

[1] = tested on: telomerase activity in VA13 cells; test: Telomerase activity (TRAP assay) in VA13 cells after peptide transfection; assay type: cell-based; conditions: 8 μg peptide
Experimental: FIG. 10. Determination of telomerase activity in VA13 cells after transfection of the peptides GSE4 and GSE5. In order to determine the effect of expression of peptides GSE4 and GSE5, VA13 cells were transfected through lipofection and 24 hours later a TRAP assay was performed for telomerase activity.
The other way of quantifying the activity of peptide GSE4 was to evaluate its ability to increase telomerase activity in VA13 cells. To do this, these cells were transfected with 8 μg of the two peptides GSE4 and GSE5. […], the cells were processed to test the telomerase activity by the TRAP method.

GFINLDKPSNPSSHEVVAWIRRILRVEKTGHSGTLDPKVTGCLIVCIERATRLVK (GSE24.2; listed as Homo sapiens) [55-amino-acid peptide corresponding to the protein dyskerin; known from WO2007/090911]
ROS levels (AT3189-P AT lymphoblasts): reduced in AT3189-P GSE24.2 cells to values comparable to those found in the AT736C control cells | viability after bleomycin (AT719 cells): able to increase viability of AT719 cells to levels similar to control cells | reduction of levels of free radicals (AT719-P cells): ~50% | reduction of levels of expression of IL8 (IL8): in the same range | senescence: percentage of cells positive for beta-galactosidase activity (AT2078 AT cells): reduced the percentage of positive cells for beta-galactosidase activity progressively over time

GFINLDKPSNP [GSE4]
reactivation of telomerase activity [1]: much higher activity in reactivating telomerase activity | reduction of levels of free radicals (AT719-P cells): 50% | reduction of levels of expression of IL8 (IL8): 90% | senescence: percentage of cells positive for beta-galactosidase activity (AT2078 AT cells): reduced the percentage of positive cells for beta-galactosidase activity progressively over time
